Article PMC4628998 (BioMed Research International, 2015)

Target: T1, CK2α (Zea mays) (Zea mays, UniProt P28523)
T1 construct: gene ACK2; catalytic subunit CK2α alone
Test: radiometric peptide phosphorylation assay, residual activity at […]
Format: biochemical

T1 sequence (P28523 whole entry): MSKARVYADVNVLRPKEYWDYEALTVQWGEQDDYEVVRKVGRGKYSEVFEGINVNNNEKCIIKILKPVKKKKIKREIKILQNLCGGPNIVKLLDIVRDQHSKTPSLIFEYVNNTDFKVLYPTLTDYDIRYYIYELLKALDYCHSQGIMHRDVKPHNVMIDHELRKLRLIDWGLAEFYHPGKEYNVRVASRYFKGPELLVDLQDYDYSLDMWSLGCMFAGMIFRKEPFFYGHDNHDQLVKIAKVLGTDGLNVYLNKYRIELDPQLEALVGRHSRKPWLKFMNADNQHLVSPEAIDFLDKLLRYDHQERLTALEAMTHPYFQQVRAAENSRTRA

- activity at 1 µM: 33%
SMILES: O=C1c2ccc(O)c(O)c2C(=O)c2c(O)ccc(O)c21 [quinalizarin, 1,2,5,8-tetrahydroxyanthraquinone]
